Entries after “also recorded” stand apart in the source; their conditions may differ.

Series [1] is described as follows: Solubility of delphinidin chloride in aqueous cyclodextrin solutions. Particulars: pure water, cyclodextrin concentration 0; excess delphinidin chloride, 30° C., 20 h, dark, 0.22 μm filter. It is filed as physicochemical.
Experimental: In this example, the complexing of delphinidin by different cyclodextrins and the solubility of the complex in aqueous solution are investigated.
Neutral aqueous solutions were prepared, containing 10 wt % of the respective cyclodextrin.
5 ml each of the aqueous cyclodextrin solutions and of pure water were introduced into glass flasks. Then an excess of delphinidin chloride was added.
The suspensions were stirred in the dark at 30° C. for 20 h. This was followed by filtration through a membrane filter with a 0.22 μm pore size.
Series [2] in a line: Stability tests in aqueous solution (delphinidin content by HPLC). The class given is physicochemical. Particulars: 0.9% NaCl solution, 37° C., dark, start 1.584 mg/ml (complex) or 0.0216 mg/ml (uncomplexed). As for the experimental part:
The delphinidin chloride content of the delphinidin-containing solutions was determined using a reversed-phase HPLC technique similar to that already described above. The following reagents were employed here:
The solutions were prepared at room temperature and then stored in closed vials in the dark at 37° C.
The delphinidin content was determined after 1, 2, 3, and 4 h. The table below reports the content found, as a percentage of the abovementioned starting concentration.

Series [3] concerns Pseudomonas aeruginosa ATCC9027. In words: Bacterial growth, static model (visual evaluation, vitality test). The class given is cell-based. Conditions: P. aeruginosa; RPMI-1640, 37° C., 48 hours. The text has this:
(§1) The strains selected were as follows: • Pseudomonas aeruginosa ATCC9027, biofilm-positive clinical isolate from an outer ear infection (reference strain);
(§2) Investigating the effect of delphinidin on the bacterial growth and the bacterial formation of biofilm took place by means of • a) visual evaluation of bacterial growth (static model), • b) vitality test (scrape on blood agar plates) • c) analysis of the biofilm in a static model by means of the crystal violet assay as described above in section 1.
(§3) The control used was sterile RPMI-1640. Then delphinidin in solution in RPMI-1640 was added, from a dilution series produced beforehand, and the cell culture dish was incubated at 37° C. for 48 hours, the visual outcome thereof being shown in FIG. 2. The color change from (phenol) red to yellow correlates with the extent of the bacterial growth.
(§4) Scrapes of the bacteria from the culture dish are shown in FIG. 3 (P. aeruginosa ATCC9027), 4 (K. pneumoniae ATCC700603), 5 (MRSA2318), 6 (MRSA2855) and 7 (MSSA1155). “ST 26.1.11” and “ST 28.1.11” in the case of the scrapes on the agar plates refers to the respective scraping date of the duplicated experiments.

The test system of series [4] is Klebsiella pneumoniae ATCC700603. The series is described as above. The class given is cell-based. Particulars: K. pneumoniae; RPMI-1640, 37° C., 48 hours.
From the text: (§5) Klebsiella pneumoniae ATCC700603 biofilm-positive clinical isolate from urine from an ESBL+(Extended Spectrum Beta-Lactamase) hospital patient (reference strain);
as §2, §3, §4

In series [5] the test system is Staphylococcus aureus MRSA2318, MRSA2855, MSSA1155. The series is described as above. It is filed as cell-based. Particulars: S. aureus (both MSSA and MRSA); RPMI-1640, 37° C., 48 hours.
From the text: (§6) Staphylococcus aureus MRSA2318 biofilm-positive clinical isolate from tracheal secretion of 22.04.2009 (Würzburg University Hospital, neurosurgical clinic and polyclinic I, intensive therapy unit); • Staphylococcus aureus MRSA2855 biofilm-positive clinical isolate from blood culture of 22.04.2009 (Würzburg University Hospital, medical clinic and polyclinic I, ITU); • Staphylococcus aureus MSSA1155 biofilm-positive clinical isolate from 27.04.2004 from abdominal cavity scrape (Würzburg University clinic, urology, unit B).
as §2, §3
Scrapes of the bacteria from the culture dish are shown in FIG. 3 (P. aeruginosa ATCC9027), 4 (K. pneumoniae ATCC700603), 5 (MRSA2318), 6 (MRSA2855) and 7 (MSSA1155). […]

Series [6] relates to Pseudomonas aeruginosa ATCC9027. Kind of series: Biofilm formation, static model, crystal violet assay. It is filed as cell-based. Particulars: P. aeruginosa, RPMI-1640, 37° C., 48 hours. On the procedure: as §1
(§7) The growth and the analysis of the biofilm were determined in a static model by means of the crystal violet assay according to basic protocol 1 in Current Protocols in Microbiology 1B.1.2-1B.1.4 “MICROTITER PLATE BIOFILM ASSAY” [published online August 2011 in Wiley Online Library (wileyonlinelibrary.com) DOI: 10.1002/9780471729259. mc01b01s22].
Investigating the effect of delphinidin on the bacterial growth and the bacterial formation of biofilm took place by means of • a) visual evaluation of bacterial growth (static model), • b) vitality test (scrape on blood agar plates) • c) analysis of the biofilm in a static model by means of the crystal violet assay as described above in section 1. […]
(§8) With the same experimental setup, the biofilm was analyzed by means of the crystal violet test as described above in section 1, the outcome thereof, after 48 hours of incubation and the crystal violet test, is shown overall in FIG. 8, and in FIGS. 9-13 in each case after measurement of the optical density, processed graphically for the respective delphinidin concentrations in the case of the individual bacterial strains (FIG. 9: P. aeruginosa ATCC9027, FIG. 10: K. pneumoniae ATCC700603, FIG. 11: MRSA2318, FIG. 12: MRSA2855, FIG. 13: MSSA1155).

Series [7] has as its system Klebsiella pneumoniae ATCC700603. The description is as above. Particulars: K. pneumoniae, RPMI-1640, 37° C., 48 hours. The class given is cell-based. On the procedure: as §5
The growth and the analysis of the biofilm were determined in a static model by means of the crystal violet assay according to basic protocol 1 in Current Protocols in Microbiology 1B.1.2-1B.1.4 “MICROTITER PLATE BIOFILM ASSAY” [published online August 2011 in Wiley Online Library (wileyonlinelibrary.com) DOI: 10.1002/9780471729259. mc01b01s22]. […]
as §8

Series [8] concerns Staphylococcus aureus MRSA2318, MRSA2855, MSSA1155. The description is as above. It is filed as cell-based. Particulars: S. aureus (both MSSA and MRSA), RPMI-1640, 37° C., 48 hours.
From the text: as §6, §7, §2
The control used was sterile RPMI-1640. […]

On to `Oc1cc(O)c2cc(O)c(-c3cc(O)c(O)c(O)c3)[o+]c2c1.[Cl-]` [Delphinidin chloride, delphinidin chloride], for which the “Delphinidin chloride (solubility achievable)” value in series [1] came to 70 µg/mL.
`Oc1cc(O)c2cc(O)c(-c3cc(O)c(O)c(O)c3)[o+]c2c1` [Delphinidin]: the “Delphinidin content as a percentage of the starting concentration” value was determined as 100% in series [2] (0 h); 8.3% in series [2] (1 h); 6.5% in series [2] (2 h); 5.6% in series [2] (3 h); 5.1% in series [2] (4 h). The Effect on growth entry in series [3] is “no inhibiting effect”; in series [4], “no inhibiting effect”; in series [5], “inhibiting effect”. In addition, the “Effect on formation of biofilm” value in series [6] was “no inhibiting effect”; in series [7], “no inhibiting effect; also recorded: appears still to be being stimulated”; in series [8], “inhibiting effect”.

These data come from US20150051273A1, “USE OF DELPHINIDIN AGAINST STAPHYLOCOCCUS AUREUS” (Sapiotec GmbH, priority 2012, published 2015).
